Laboratory results from ChEMBL document CHEMBL4610099, “Galtonosides A-E: Antiproliferative and Antiplasmodial Cholestane Glycosides from Galtonia regalis” (J Nat Prod, 2020).
The source made the active and inactive calls. The rule behind the calls is not given here.

What was measured:
Erythrocyte [1] = test: Hemolytic activity against human erythrocytes infected with ring stage Plasmodium falciparum Dd2 assessed as morphological changes at 11 uM up to 72 hrs by Giemsa-staining based light microscopic analysis; assay type: ADME, cell-based
Plasmodium falciparum [2] = test: Antiplasmodial activity against ring stage Plasmodium falciparum Dd2 infected in human erythrocytes assessed as reduction in trophozoites formation at 11 uM up to 72 hrs by Giemsa-staining based light microscopic analysis; assay type: functional, organism-based
Plasmodium falciparum [3] = test: Antiplasmodial activity against ring stage Plasmodium falciparum Dd2 assessed as reduction in parasite growth after 72 hrs by SYBR Green 1 staining based assay; assay type: functional, organism-based; conditions: Dd2, 72 h
Erythrocyte [4] = test: Hemolytic activity against human erythrocytes assessed as morphological changes at IC50 concentration up to 72 hrs; assay type: ADME, cell-based
Erythrocyte [5] = test: Hemolytic activity against human erythrocytes infected with ring stage Plasmodium falciparum Dd2 assessed as reduction in cell viability at 11 uM up to 72 hrs by Giemsa-staining based light microscopic analysis
Erythrocyte [6] = test: Hemolytic activity against human erythrocytes infected with ring stage Plasmodium falciparum Dd2 assessed as morphological changes at IC50 concentration up to 72 hrs; assay type: ADME, cell-based
A2780 = test: Antiproliferative activity against human A2780 cells assessed as reduction in cell viability after 2 days hrs by AlamarBlue assay; assay type: functional, cell-based; conditions: A2780, 48 h
Erythrocyte [7] = test: Hemolytic activity against human erythrocytes infected with ring stage Plasmodium falciparum Dd2 assessed as morphological changes at 3 uM up to 72 hrs by Giemsa-staining based light microscopic analysis; assay type: ADME, cell-based
Erythrocyte [8] = test: Hemolytic activity against human erythrocytes infected with ring stage Plasmodium falciparum Dd2 assessed as reduction in cell viability at 3 uM up to 72 hrs by Giemsa-staining based light microscopic analysis
Plasmodium falciparum [9] = test: Antiplasmodial activity against ring stage Plasmodium falciparum Dd2 infected in human erythrocytes assessed as reduction in trophozoites formation at 3 uM up to 72 hrs by Giemsa-staining based light microscopic analysis; assay type: functional, organism-based
Erythrocyte [10] = test: Hemolytic activity against human erythrocytes infected with ring stage Plasmodium falciparum Dd2 assessed as reduction in cell viability at 6 uM up to 72 hrs by Giemsa-staining based light microscopic analysis
Plasmodium falciparum [11] = test: Antiplasmodial activity against ring stage Plasmodium falciparum Dd2 infected in human erythrocytes assessed as reduction in trophozoites formation at 6 uM up to 72 hrs by Giemsa-staining based light microscopic analysis; assay type: functional, organism-based
Erythrocyte [12] = test: Hemolytic activity against human erythrocytes infected with ring stage Plasmodium falciparum Dd2 assessed as morphological changes at 6 uM up to 72 hrs by Giemsa-staining based light microscopic analysis; assay type: ADME, cell-based

Compound | Activity (Erythrocyte [1]) | Activity (Plasmodium falciparum [2]) | IC50 (Plasmodium falciparum [3]) [nM] | Activity (Erythrocyte [4]) | Activity (Erythrocyte [5]) | Activity (Erythrocyte [6]) | IC50 (A2780) [nM] | Activity (Erythrocyte [7]) | Activity (Erythrocyte [8]) | Activity (Plasmodium falciparum [9]) | Activity (Erythrocyte [10]) | Activity (Plasmodium falciparum [11]) | Activity (Erythrocyte [12])
COc1cc(C(=O)O[C@H]2[C@H](O[C@@H]3[C@@H](OC(C)=O)[C@H](O[C@H]4C[C@H]5[C@@H]6CC=C7C[C@@H](O)CC[C@]7(C)[C@H]6CC[C@]5(C)[C@@]4(O)[C@H](C)C(=O)CCC(C)C)OC[C@@H]3O)OC[C@@H](O)[C@@H]2O)cc(OC)c1OC | Non-Toxic | Active | 560 | Non-Toxic | Non-Toxic | Non-Toxic | 90 | – | – | – | – | – | –
CC(=O)O[C@H]1[C@H](O[C@H]2C[C@H]3[C@@H]4CC=C5C[C@@H](O)CC[C@]5(C)[C@H]4CC[C@]3(C)[C@@]2(O)[C@H](C)C(=O)CCC(C)C)OC[C@H](O)[C@@H]1O[C@@H]1OC[C@@H](O)[C@H](O)[C@H]1OC(=O)/C=C/c1ccccc1 | – | – | 950 | Non-Toxic | – | Non-Toxic | 100 | – | – | – | – | – | –
COc1cc(C(=O)O[C@H]2[C@H](O[C@@H]3[C@@H](OC(C)=O)[C@H](O[C@H]4C[C@H]5[C@@H]6CC=C7C[C@@H](O)CC[C@]7(C)[C@H]6CC[C@]5(C)[C@H]4[C@H](C)C(=O)CCC(C)C)OC[C@@H]3O)OC[C@@H](O)[C@@H]2O)cc(OC)c1OC | Non-Toxic | Active | 610 | Non-Toxic | Non-Toxic | Non-Toxic | 100 | – | – | – | – | – | –
COc1ccc(C(=O)O[C@H]2[C@H](O[C@@H]3[C@@H](OC(C)=O)[C@H](O[C@H]4C[C@H]5[C@@H]6CC=C7C[C@@H](O)CC[C@]7(C)[C@H]6CC[C@]5(C)[C@H]4[C@H](C)C(=O)CCC(C)C)OC[C@@H]3O)OC[C@@H](O)[C@@H]2O)cc1OC | Non-Toxic | Active | 630 | Non-Toxic | Non-Toxic | Non-Toxic | 100 | – | – | – | – | – | –
C[C@@H]1CC[C@H]2[C@@H](C)C(=O)O[C@@H]3O[C@@]4(C)CC[C@@H]1[C@]32OO4 [ARTEMISININ] | – | – | 6.5 | – | – | – | – | – | – | – | – | – | –
COc1ccc(C(=O)O[C@H]2[C@H](O[C@@H]3[C@@H](OC(C)=O)[C@H](O[C@H]4C[C@H]5[C@@H]6CC=C7C[C@@H](O)CC[C@]7(C)[C@H]6CC[C@]5(C)[C@@]4(O)[C@H](C)C(=O)CCC(C)C)OC[C@@H]3O)OC[C@@H](O)[C@@H]2O)cc1OC | – | – | 1510 | Non-Toxic | – | Non-Toxic | 100 | – | – | – | – | – | –
COc1ccc(C(=O)O[C@H]2[C@H](O[C@H]3C[C@H]4[C@@H]5CC=C6C[C@@H](O)CC[C@]6(C)[C@H]5CC[C@]4(C)[C@@]3(O)[C@H](C)C(=O)CCC(C)C)OC[C@H](O)[C@@H]2O)cc1OC | – | – | 210 | Non-Toxic | – | Non-Toxic | 140 | Non-Toxic | Non-Toxic | Active | – | – | –
CC(=O)O[C@H]1[C@H](O[C@H]2C[C@H]3[C@@H]4CC=C5C[C@@H](O)CC[C@]5(C)[C@H]4CC[C@]3(C)[C@H]2[C@H](C)C(=O)CCC(C)C)OC[C@H](O)[C@@H]1O[C@@H]1OC[C@@H](O)[C@H](O)[C@H]1OC(=O)/C=C/c1ccccc1 | – | – | 420 | Non-Toxic | – | Non-Toxic | 100 | – | – | – | Non-Toxic | Active | Non-Toxic
